Assays:
[1] = test system: Sprague-Dawley rats; assay: PPAR-γ agonist (pioglitazone)-mediated fluid retention / plasma expansion model, 7 days, drugs in drinking water; type: in vivo, rat
Source text: It has been recognized in human clinical practice that an undesirable side effect of PPAR-γ agonists of the thiazolidinedione class is fluid retention and edema, which limits their use in patients with congestive heart failure. The mechanism of action of the thiazolidinediones is believed to be through stimulation of expression of the epithelial sodium channel (ENaC) in the kidney, resulting in an increased uptake of sodium ions from the distal tubule. Sodium retention and the associated expansion of extracellular fluid volume are characteristic features of congestive heart failure in multiple species. […] The sodium channel blocker amiloride was delivered in drinking water to a third group of rats as a comparator. Plasma expansion was measured by hematocrit. […] Food weight was recorded to measure consumption over the course of the experiment. […] Full bottles were pre-weighed and the weights recorded to allow consumption to be measured over the course of the experiment. On days 1 and 7, rats were warmed using a heating pad and lightly anesthetized using isoflurane. Using a sterile scalpel blade, a small tail nick was made on the distal one third of the tail. Blood was collected in a heparinized microcapillary tube sealed with putty at one end and stored on ice until centrifugation (5000 rpm, 5 min). Plasma volume was determined using a microhematocrit capillary tube reader card. On day 7, rats, food and water bottles were again weighed and recorded and hematocrits were determined using blood collected by a tail nick.

[2] = test system: dogs with stage C heart failure; settings: cited from earlier work; for median survival: dogs with stage C heart failure, composite primary endpoint
[3] = test system: client-owned dogs with CKD; settings: cited from earlier work
[4] = test system: cats with CKD; settings: cited from earlier work; for reduction in urinary protein to creatinine ratio: cats, 7, 30, 60, 90, 120 and 180 days
[5] = test system: client-owned cats with heart disease; settings: 151 client-owned cats with heart disease; cited from earlier work
[6] = test system: diabetic subjects with stage A3 albuminuria; settings: humans, median 2.62 years; cited from earlier work
[7] = test system: human SGLT2 compared to human SGLT1; settings: compared with other SGLT inhibitors; cited from earlier work
[8] = test system: dogs with stage B heart failure; settings: cited from earlier work
[9] = rats, day 1 to day 7, mean ± SEM
[10] = rats, pioglitazone diet, mean ± SEM
[11] = rats, relative to day 1, mean ± SEM

Compound: N=C(N)NC(=O)c1nc(Cl)c(N)nc1N [Amiloride, reference compound]
- Plasma volume, Day 7 ([1]; rats after 7 days pioglitazone diet, group mean ± SEM): 56.6 ± 0.4 % of blood volume
- Plasma volume, Day 1 ([1]; rats on 0.03% pioglitazone diet, by hematocrit, group mean ± SEM): 52.7 ± 0.9 % of blood volume
- Effect on pioglitazone-mediated plasma expansion (conclusion) ([1]; rats, 7 days): markedly less effective than bexagliflozin
- Body Weight (%), Δ (percent mass gain) [1, 9]: 10.8 ± 0.7%
- Body Weight (g), Δ [1, 9]: 40.0 ± 2.8 g
- Plasma volume, Δ (day 1 to day 7) ([1]; rats, pioglitazone diet, group mean ± SEM): 3.9 ± 0.7 % of blood volume
- Body Weight (g), Day 1 [1, 10]: 370.0 ± 6.0 g
- Body Weight (g), Day 7 [1, 10]: 410.0 ± 7.7 g
- Body Weight (%), Day 1 [1, 11]: 100 ± 0%
- Body Weight (%), Day 7 [1, 11]: 110.8 ± 0.7 %

Compound: CCOC(=O)[C@H](CCc1ccccc1)N[C@H]1CCc2ccccc2N(CC(=O)O)C1=O [benazepril]
- median survival [2]: 140 days
- difference in renal survival time vs placebo ([3]; 49 client-owned dogs): significance was not realized
- proteinuria (urinary protein to creatinine ratio) ([3]; dogs, p=0.0032): significantly improved
- reduction in urinary protein to creatinine ratio [4]: not significant
- primary endpoint of treatment failure [5]: no benefit

Compound: Cc1ccc([C@@H]2O[C@H](CO)[C@@H](O)[C@H](O)[C@H]2O)cc1Cc1ccc(-c2ccc(F)cc2)s1 [canagliflozin]
- risk of composite of end-stage kidney disease, doubling of serum creatinine, or renal or cardiovascular death, lower than placebo [6]: 30%

Compound: CCc1ccc([C@@H]2O[C@H](CO)[C@@H](O)[C@H](O)[C@H]2O)cc1Cc1ccc2c(c1)OCCO2 [licogliflozin]
- selectivity for human SGLT2 compared to human SGLT1 (in words) [7]: lower selectivity

Compound: Cc1cc(OCCCNCC(C)(C)C(N)=O)ccc1Cc1c(O[C@@H]2O[C@H](CO)[C@@H](O)[C@H](O)[C@H]2O)n[nH]c1C(C)C [mizagliflozin]
- selectivity for human SGLT2 compared to human SGLT1 (in words) [7]: more active against SGLT1 than SGLT2

Compound: COc1ccc(-c2nc3ccc(C4=NNC(=O)CC4C)cc3[nH]2)cc1 (stereo not shown) [pimobendan]
- median survival [2]: 267 days
- hazard ratio ([2]; pimobendan vs benazepril, 95% CI 0.516 to 0.916, p=0.0099): 0.688
- median time to the primary endpoint ([8]; dogs with stage B heart failure, onset of CHF, cardiac-related death, or euthanasia, 95% CI: 856-NA): 1228 days
- hazard ratio ([8]; pimobendan vs placebo, 95% CI: 0.47-0.87): 0.64

Compound: CCOc1ccc(Cc2cc([C@@H]3O[C@H](SC)[C@@H](O)[C@H](O)[C@H]3O)ccc2Cl)cc1 [sotagliflozin]
- selectivity for human SGLT2 compared to human SGLT1 (in words) [7]: lower selectivity

Compound: CCCc1nc2c(C)cc(-c3nc4ccccc4n3C)cc2n1Cc1ccc(-c2ccccc2C(=O)O)cc1 [telmisartan]
- comparison with benazepril ([4]; cats with CKD): noninferior to benazepril
- reduction in urinary protein to creatinine ratio [4]: significant at all time points

Reference: patent US20230000816A1, “SODIUM-GLUCOSE LINKED TRANSPORTER INHIBITORS FOR THE MANAGEMENT OF CHRONIC KIDNEY DISEASE, HYPERTENSION, AND HEART FAILURE IN COMPANION ANIMALS” (INCREVET, INC., priority 2019, published 2023)
